In patent publication US7524503B2, “Human cytomegalovirus (HCMV) cytotoxic T cell epitopes, polyepitopes compositions comprising same and diagnostic and prophylactic and therapeutic uses therefor” (priority 2001, dated 2009):
Where “and” joins values, the source holds several entries; their conditions need not be identical. Equal values may be shown once. Read-outs that look alike come from different tables or passages of the source.

Key:
[1] = test system: peptide-sensitized autologous PHA blasts or LCLs; type: cell-based, human; parameters: key to CTL response: Y: Yes; ND: Not detected
CD8+ T cells = assay: CD4+/CD8+ analysis of 20-mer peptides (intracellular IFN-γ staining or depletion ELISPOT); type: cell-based, human
Description: (§1) To determine whether a particular 20-mer peptide contained either a CD4^+- or CD8^+-restricted epitope, or both, CD4^+/CD8^+ cell depletion ELISPOT assays were performed on PBMC from healthy virus carriers. For any one experiment, three populations of cells were used: a) CD8^+-depleted PBMC, b) CD4^+-depleted PBMC, and c) non-depleted PBMC. These populations of cells were tested concurrently with the same peptides in a conventional ELISPOT assay as described herein above. DYNABEADS M-450 (Dynal, Oslo, Norway) that bound specifically to CD4^+- or CD8^+ cells were used to perform the depletion essentially according to manufacturers instructions. Beads were washed twice in cold PBS supplemented with 2% FCS using magnetic isolation. The requisite number of cells was resuspended in cold PBS supplemented with 2% FCS, added to the beads and then incubated at 4° C., in the dark, for 30 mins (CD8^+ beads) or 60 mins (CD4^+ beads). Populations were depleted of CD4^+ or CD8^+ cells using magnetic separation. After depletion, the non-attached cells were removed and washed once in growth medium, counted and used in conventional ELISPOT assay. Depleted cells were used at 1.7×10^5 cells per well and the non-depleted population was used at the standard 2.5×10^5 cells per well. After the depletion step, each respective cell population was assessed for the purity of CD4^+ and CD8^+ T cells by three-colour flow cytometry. Samples of depleted cell populations were stained with anti-CD3 antibody directly conjugated to fluorescein isothiocyanate (FITC), anti-CD4 antibody conjugated with phycoerythrin (PE) fluorochrome, and anti-CD8 antibody conjugated with Tricolor fluorochrome (described below). The percent of CD3^+/CD4^+ cells present within the CD8^+-depleted population and the percent of CD3^+/CD8^+ cells present within the CD4^+-depleted populations were assessed on FACSCalibur cytometer (Becton Dickinson). The purity of each population was greater than 90% and the results from the ELISPOT assays are expressed as the percentage of CD4+ or CD8^+ cells within the depleted populations that responded toward each peptide by producing IFN-γ.
(§2) PBMCs were incubated at 37° C. in RPMI+10% FCS with and without 10 μg/ml peptides for 6 hours. Golgiplug™ (Pharmingen, San Diego, Calif., USA) was added to the samples according to manufacturer's instructions during the second hour of incubation and cells activated with 25 ng/ml phorbol 12-myristidate 13-acetate (PMA; Sigma-Aldrich Co, St. Louis Mo.) and 1 μg/ml iomomycin (Sigma) acted as a positive control. Following the incubation, 1×10^6 cells/sample were washed and resuspended in staining buffer consisting of PBS with GolgiPlug™, 3% FCS and sodium azide. Cells were then stained with FITC conjugated anti-CD3-FITC (UCHT1, Immunotech, Marseille, France), and either Tricolor (TRI) conjugated anti-CD4 (S3.5, Caltag, Burlingame, Calif.) or anti-CD8 (3B5, Caltag) for 30 minutes, 4° C. in the dark. The cells were fixed for 20 min at 4° C. with Cytofix/Cytoperm™ (BD Biosciences) and resuspended in Perm/Wash™ permeabilization buffer (BD Biosciences) according to manufacturers protocol. Fixed cells were stained with phycoerythrin (PE) conjugated anti-human IFN-γ (B27, Pharmingen) for 30 min at 4° C. in the dark. As a negative control, cells were stained with appropriate isotype matched control antibodies. Cells were washed twice in permeabilization buffer and resuspended in staining buffer before analysis by three-colour flow cytometry on a FACSCalibur cytometer (BD Biosciences). All data analysis was carried out using FlowJo software (Tree Star, Inc. San Carlos, CA).
(§3) When using 20-mer peptides to map epitopes by ELISPOT, it is possible that some responses may be MHC class-II restricted, and not necessarily restricted through HLA class I alleles. It was evident throughout this study that some epitopes identified using ELISPOT could not be confirmed using cytotoxicity analysis. […]

CD4+ T cells = assay: as above; type: cell-based, human
Description: as §1, §2, §3

[2] = test system: PBMC from healthy HCMV seropositive donors; assay: IFN-γ ELISPOT assay; type: cell-based, human; conditions: peptide 10 μg/ml
Method in brief: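 IFN-γ-secreting T cells were counted as spots, with no-peptide control wells subtracted and means taken from triplicate wells. These spots came from healthy seropositive carriers' PBMC, 2.5×10^5 per well.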

HLA A3 = molecular target: T1, HLA A3 (Homo sapiens, UniProt P04439); assay: MHC stabilization assay on T2 cells; type: cell-based; conditions: HLA A3 on transfected T2 cells; relative increase vs no peptide at 26° C.
T1 construct: EGFP; expressed in transfected cells; host or cells: T2 cells
T1 sequence (P04439 25-365): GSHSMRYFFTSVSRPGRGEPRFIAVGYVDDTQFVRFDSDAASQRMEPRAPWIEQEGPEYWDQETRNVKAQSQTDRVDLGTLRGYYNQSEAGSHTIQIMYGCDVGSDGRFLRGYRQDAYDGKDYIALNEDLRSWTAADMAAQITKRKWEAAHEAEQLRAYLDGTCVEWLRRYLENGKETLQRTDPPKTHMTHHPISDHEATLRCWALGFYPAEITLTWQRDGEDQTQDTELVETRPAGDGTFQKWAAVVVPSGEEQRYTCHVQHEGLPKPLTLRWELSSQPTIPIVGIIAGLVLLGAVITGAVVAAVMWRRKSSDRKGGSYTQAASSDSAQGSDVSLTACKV
T1 sequence (P61769 21-119, further chain): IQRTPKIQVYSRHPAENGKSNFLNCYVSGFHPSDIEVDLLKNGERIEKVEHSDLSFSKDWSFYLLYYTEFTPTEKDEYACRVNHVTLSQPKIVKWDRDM

[3] = overlapping 20mer peptides, Table 4

## RSYAYIYTTYLLGSNTEYVA (human cytomegalovirus gB CTL epitope peptide)
[1]; [3]
  CTL response: Y
CD8+ T cells; donor fourteen
  Responding cells (% CD8): 0.58%
CD4+ T cells; donor fourteen
  Responding cells (% CD4): 0.39%
[2]; donor fourteen
  ELISPOT Responses (SFC/10^6 PBMC): RK(170) SFC/10^6 PBMC

## YLMDELRYVK (human cytomegalovirus gH CTL epitope peptide)
HLA A3
  MSE (MHC stabilization efficiency): − (− = 0-50%)

## CSPDEIMAYAQKIFKILDEE
[1]
  CTL response: Y
CD8+ T cells; donor five
  Responding cells (% CD8): 0.4%
CD4+ T cells; donor five
  Responding cells (% CD4): 0.53%
[2]; donor five
  ELISPOT Responses (SFC/10^6 PBMC): CS(1532) SFC/10^6 PBMC

## ELYLMGSLVH (human cytomegalovirus gH CTL epitope peptide)
HLA A3
  MSE (MHC stabilization efficiency): − (− = 0-50%)

## ELLAGGRVF (human cytomegalovirus pp28 CTL epitope peptide)
HLA A3
  MSE (MHC stabilization efficiency): − (− = 0-50%)

## MQLIPDDYSNTHSTRYVTVK (human cytomegalovirus gB CTL epitope peptide)
[1]; [3]
  CTL response: Y
CD8+ T cells; donor four
  Responding cells (% CD8): 0.03%
CD4+ T cells; donor four
  Responding cells (% CD4): 0.06%
[2]; donor four
  ELISPOT Responses (SFC/10^6 PBMC): 238 SFC/10^6 PBMC and 302 SFC/10^6 PBMC
[2]; donor seven
  ELISPOT Responses (SFC/10^6 PBMC): SB(157) SFC/10^6 PBMC

## IQIIYTRNHEVKSEVDAVRC
[1]; [3]
  CTL response: Y
CD8+ T cells; donor delta
  Responding cells (% CD8): 0.19%
CD4+ T cells; donor delta
  Responding cells (% CD4): 0%
[2]; donor delta
  ELISPOT Responses (SFC/10^6 PBMC): 203 SFC/10^6 PBMC
[2]; donor seven
  ELISPOT Responses (SFC/10^6 PBMC): 288 SFC/10^6 PBMC

## QVIGDQYVK
HLA A3
  MSE (MHC stabilization efficiency): ++ (++ = 100-199%)

## MNGQQIFLEVQAIRETVELR
[1]; [3]
  CTL response: Y
CD8+ T cells; donor two
  Responding cells (% CD8): 0.48%
CD4+ T cells; donor two
  Responding cells (% CD4): 0.26%
[2]; donor alpha
  ELISPOT Responses (SFC/10^6 PBMC): 277 SFC/10^6 PBMC
[2]; donor two
  ELISPOT Responses (SFC/10^6 PBMC): 2985 SFC/10^6 PBMC

## ALALFAAAR (human cytomegalovirus gH CTL epitope peptide)
HLA A3
  MSE (MHC stabilization efficiency): − (− = 0-50%)

## RQTEKHELLVLVKKAQLNRH
[1]; [3]
  CTL response: Y
CD8+ T cells; donor fourteen
  Responding cells (% CD8): 0.57%
CD4+ T cells; donor fourteen
  Responding cells (% CD4): 1.52%
[2]; donor fourteen
  ELISPOT Responses (SFC/10^6 PBMC): RK(313) SFC/10^6 PBMC

## LVRLVYILSK (human cytomegalovirus gH CTL epitope peptide)
HLA A3
  MSE (MHC stabilization efficiency): +++ (+++ = 200-300%)

## QAIRETVELRQYDPVAALFF
[1]; [3]
  CTL response: Y
CD8+ T cells; donor two
  Responding cells (% CD8): 0.33%
CD4+ T cells; donor two
  Responding cells (% CD4): 0.28%
[2]; donor alpha
  ELISPOT Responses (SFC/10^6 PBMC): 102 SFC/10^6 PBMC
[2]; donor seven
  ELISPOT Responses (SFC/10^6 PBMC): 241 SFC/10^6 PBMC
[2]; donor two
  ELISPOT Responses (SFC/10^6 PBMC): JD(2593) SFC/10^6 PBMC

## KMTATFLSK (human cytomegalovirus gB CTL epitope peptide)
HLA A3
  MSE (MHC stabilization efficiency): +++ (+++ = 200-300%)

## QQNQWKEPDVYYTSAFVFPT
[1]; [3]
  CTL response: Y
CD8+ T cells; donor eight
  Responding cells (% CD8): 0.03%
CD4+ T cells; donor eight
  Responding cells (% CD4): 0%
[2]; donor eight
  ELISPOT Responses (SFC/10^6 PBMC): JW(600) SFC/10^6 PBMC
